Reference: patent publication US8906925B2, “Pyrido[4,3-B]indoles containing rigid moieties” (Medivation Technologies, Inc., priority 2008, dated 2014)
Read-outs that look alike come from different tables or passages of the source.

How the values were obtained:
[1] = biological target: T1, human recombinant serotonin (5-Hydroxytryptamine) 5-HT6 receptor (Homo sapiens, UniProt P50406); assay: Serotonin 5-HT6 radioligand binding ([3H]LSD); details: read-out: Inhibition of ligand binding, Serotonin 5-HT6 (percent inhibition of specific binding); for inhibition at 1 µM: compound at 1 μM
T1 construct: expressed in transfected cells; host or cells: human HeLa cells
T1 sequence (P50406 whole entry): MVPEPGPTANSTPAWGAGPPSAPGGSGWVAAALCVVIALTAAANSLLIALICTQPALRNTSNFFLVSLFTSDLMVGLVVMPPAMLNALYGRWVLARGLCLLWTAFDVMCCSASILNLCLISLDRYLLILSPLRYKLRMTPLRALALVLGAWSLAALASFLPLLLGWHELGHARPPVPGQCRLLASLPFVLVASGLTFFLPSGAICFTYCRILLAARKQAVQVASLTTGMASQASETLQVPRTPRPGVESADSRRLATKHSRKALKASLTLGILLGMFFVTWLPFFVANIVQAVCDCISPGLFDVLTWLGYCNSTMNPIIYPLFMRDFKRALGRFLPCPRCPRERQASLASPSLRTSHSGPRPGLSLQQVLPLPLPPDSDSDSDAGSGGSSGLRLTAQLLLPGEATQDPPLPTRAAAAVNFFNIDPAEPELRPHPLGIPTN
Description: Compounds of the invention were incubated with 1.5 nM [3H]Lysergic acid diethylamide (LSD) for 120 min. at 37° C. […] Receptor proteins were filtered and washed, the filters were then counted to determine [3H]LSD specifically bound. Compounds were screened at 1 μM or lower, using 1% DMSO as vehicle. Biochemical assay results are presented as the percent inhibition of specific binding in Table 10.

[2] = biological target: T2, human recombinant serotonin (5-Hydroxytryptamine) 5-HT2A receptor (Homo sapiens, UniProt P28223); assay: Serotonin 5-HT2A radioligand binding ([3H]Ketanserin); details: for inhibition at 1 µM: read-out: Inhibition of ligand binding, Serotonin 5-HT2A (percent inhibition of specific binding), compound at 1 μM
T2 construct: expressed in transfected cells; host or cells: Chinese hamster ovary (CHO-K1) cells
T2 sequence (P28223 whole entry): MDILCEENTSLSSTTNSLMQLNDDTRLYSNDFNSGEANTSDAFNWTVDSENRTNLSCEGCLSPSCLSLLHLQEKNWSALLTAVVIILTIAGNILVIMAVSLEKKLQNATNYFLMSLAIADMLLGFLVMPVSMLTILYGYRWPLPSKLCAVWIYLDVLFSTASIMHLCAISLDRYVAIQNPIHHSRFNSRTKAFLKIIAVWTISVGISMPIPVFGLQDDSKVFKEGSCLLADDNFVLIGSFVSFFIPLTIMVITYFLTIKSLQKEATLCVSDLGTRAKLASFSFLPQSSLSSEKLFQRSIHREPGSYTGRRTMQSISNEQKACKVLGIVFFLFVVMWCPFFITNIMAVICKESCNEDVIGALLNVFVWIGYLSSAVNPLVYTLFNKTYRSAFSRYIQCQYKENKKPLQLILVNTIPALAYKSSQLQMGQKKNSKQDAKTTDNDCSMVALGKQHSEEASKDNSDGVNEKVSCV
Description: Compounds of the invention were incubated with 0.5 nM [^3H]Ketanserin for 60 min. at 25° C. Non-specific binding was estimated in the presence of 1 μM Mianserin. Receptor proteins were filtered and washed, the filters were then counted to determine [^3H]Ketanserin specifically bound.

[3] = biological target: T3, human recombinant serotonin (5-Hydroxytryptamine) 5-HT2C receptor (Homo sapiens, UniProt P28335); assay: Serotonin 5-HT2C radioligand binding ([3H]Mesulergine); details: read-out: Inhibition of ligand binding, Serotonin 5-HT2C (percent inhibition of specific binding); for inhibition at 1 µM: compound at 1 μM
T3 construct: expressed in transfected cells; host or cells: Chinese hamster ovary (CHO-K1) cells
T3 sequence (P28335 33-458): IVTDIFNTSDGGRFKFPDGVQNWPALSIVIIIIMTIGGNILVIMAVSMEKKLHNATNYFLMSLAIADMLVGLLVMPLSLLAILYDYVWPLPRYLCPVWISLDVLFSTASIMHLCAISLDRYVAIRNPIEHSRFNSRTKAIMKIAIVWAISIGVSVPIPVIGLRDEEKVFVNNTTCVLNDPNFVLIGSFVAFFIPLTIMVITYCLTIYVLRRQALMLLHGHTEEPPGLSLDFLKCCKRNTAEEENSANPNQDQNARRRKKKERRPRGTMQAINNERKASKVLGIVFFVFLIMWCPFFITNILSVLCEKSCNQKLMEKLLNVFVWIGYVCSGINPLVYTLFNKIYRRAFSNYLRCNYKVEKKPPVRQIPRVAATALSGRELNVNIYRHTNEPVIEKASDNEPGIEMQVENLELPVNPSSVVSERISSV
Summary of the method: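 Compounds tested at 1 μM or lower (1% DMSO vehicle) for displacement of 1 nM [3H]Mesulergine over 60 min at 25° C. Specific binding determined by filtration counting, with 1 μM Mianserin defining non-specific binding; values are percent inhibition.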

histamine receptor H1 = histamine receptor H1 (Homo sapiens, UniProt P35367); assay: Histamine H1 radioligand binding ([3H]Pyrilamine); details: for inhibition at 1 µM: read-out: Histamine Binding (1 μM) H1, percent inhibition of specific binding, 1 μM
Sequence of histamine receptor H1 (P35367 whole entry): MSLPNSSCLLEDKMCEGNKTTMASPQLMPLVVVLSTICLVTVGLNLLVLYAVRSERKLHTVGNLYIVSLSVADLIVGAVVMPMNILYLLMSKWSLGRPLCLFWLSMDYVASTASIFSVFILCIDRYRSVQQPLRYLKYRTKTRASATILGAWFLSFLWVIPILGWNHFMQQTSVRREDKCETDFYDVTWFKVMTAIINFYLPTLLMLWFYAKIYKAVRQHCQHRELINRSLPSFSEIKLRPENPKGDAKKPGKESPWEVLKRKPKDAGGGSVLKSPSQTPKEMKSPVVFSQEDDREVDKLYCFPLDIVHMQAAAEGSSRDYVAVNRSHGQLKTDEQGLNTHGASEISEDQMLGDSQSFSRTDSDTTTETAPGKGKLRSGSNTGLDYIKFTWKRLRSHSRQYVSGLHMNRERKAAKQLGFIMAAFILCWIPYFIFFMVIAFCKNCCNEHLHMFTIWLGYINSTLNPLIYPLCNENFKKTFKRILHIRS
Summary of the method: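 Values are percent inhibition of specific [3H]pyrilamine (1.2 nM) binding with compounds at ≤1 μM (1% DMSO vehicle); 180 min incubation at 25 °C, pH 7.4 Tris buffer, on CHO-expressed human H1 receptor; 1 μM pyrilamine defined nonspecific binding, bound ligand counted after filtration.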

[4] = biological target: human dopamine D2L receptor (Homo sapiens, UniProt P14416); assay: Dopamine D2L radioligand binding ([3H]Spiperone); details: compound at 1 μM
Sequence of human dopamine D2L receptor (P14416 whole entry): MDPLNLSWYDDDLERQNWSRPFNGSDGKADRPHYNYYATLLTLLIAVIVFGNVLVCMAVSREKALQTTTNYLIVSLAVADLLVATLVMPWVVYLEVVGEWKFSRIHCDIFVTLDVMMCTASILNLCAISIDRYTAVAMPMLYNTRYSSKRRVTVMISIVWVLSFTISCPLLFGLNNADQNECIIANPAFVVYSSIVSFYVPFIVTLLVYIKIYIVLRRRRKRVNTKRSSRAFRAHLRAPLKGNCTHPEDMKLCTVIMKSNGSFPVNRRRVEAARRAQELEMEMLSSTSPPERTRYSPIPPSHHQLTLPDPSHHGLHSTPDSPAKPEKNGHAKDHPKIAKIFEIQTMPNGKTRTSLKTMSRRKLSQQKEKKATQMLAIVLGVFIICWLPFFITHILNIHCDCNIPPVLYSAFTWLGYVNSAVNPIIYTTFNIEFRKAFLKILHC
Source text: Non-specific binding was estimated in the presence of […] Haloperidol. Receptor proteins were filtered and washed, the filters were then counted to determine [^3H]Spiperone specifically bound. […] Biochemical assay results are presented as the percent inhibition of specific binding in Table 9.

[5] = biological target: human recombinant serotonin (5-Hydroxytryptamine) 5-HT7 receptor (Homo sapiens, UniProt P34969); assay: Serotonin 5-HT7 radioligand binding ([3H]LSD); details: read-out: Inhibition of ligand binding, Serotonin 5-HT7 (percent inhibition of specific binding); for inhibition at 1 µM: compound at 1 μM
Sequence of human recombinant serotonin (5-Hydroxytryptamine) 5-HT7 receptor (P34969 whole entry): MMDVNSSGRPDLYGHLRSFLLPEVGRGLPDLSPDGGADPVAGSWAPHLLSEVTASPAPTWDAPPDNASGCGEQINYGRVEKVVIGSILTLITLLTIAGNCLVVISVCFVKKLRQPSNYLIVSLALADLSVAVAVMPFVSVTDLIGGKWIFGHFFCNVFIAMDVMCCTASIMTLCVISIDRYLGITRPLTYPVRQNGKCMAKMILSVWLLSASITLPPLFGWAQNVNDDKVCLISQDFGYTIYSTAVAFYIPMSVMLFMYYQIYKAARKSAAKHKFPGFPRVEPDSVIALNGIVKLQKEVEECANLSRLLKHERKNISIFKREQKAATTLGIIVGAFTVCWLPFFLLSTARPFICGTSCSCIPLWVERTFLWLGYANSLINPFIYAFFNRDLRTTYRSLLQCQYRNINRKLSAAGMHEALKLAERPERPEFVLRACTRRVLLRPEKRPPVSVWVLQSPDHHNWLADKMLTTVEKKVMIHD
Source text: Receptor proteins were filtered and washed, the filters were then counted to determine [^3H]LSD specifically bound.

[6] = biological target: T4, human recombinant histamine H2 receptor (Homo sapiens, UniProt P25021); assay: Histamine H2 radioligand binding ([125I]Aminopotentidine); details: read-out: Histamine Binding (1 μM) H2, percent inhibition of specific binding, 1 μM
T4 construct: expressed in transfected cells; host or cells: Chinese hamster ovary (CHO) K1 cells
T4 sequence (P25021 whole entry): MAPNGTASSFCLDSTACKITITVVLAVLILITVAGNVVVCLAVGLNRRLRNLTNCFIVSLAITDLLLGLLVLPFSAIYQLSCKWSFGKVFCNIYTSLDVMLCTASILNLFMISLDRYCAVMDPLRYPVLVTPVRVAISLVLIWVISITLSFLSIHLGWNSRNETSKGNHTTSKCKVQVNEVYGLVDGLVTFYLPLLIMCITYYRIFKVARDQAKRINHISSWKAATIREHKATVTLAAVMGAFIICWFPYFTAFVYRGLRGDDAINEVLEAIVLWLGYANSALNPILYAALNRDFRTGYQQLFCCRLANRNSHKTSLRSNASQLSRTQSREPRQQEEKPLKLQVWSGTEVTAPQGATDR
Description: To evaluate in radioligand binding assays the activity of compounds of the invention, human recombinant histamine H2 receptor expressed in Chinese hamster ovary (CHO) K1 cells (Ruat, M., Proc. Natl. Acad. Sci. USA. 87(5):1658, 1990) in a 50 mM Phosphate buffer, pH 7.4 was used. Compounds of the invention were incubated with 0.1 nM [^125I]Aminopotentidine for 120 min. at 25° C. Non-specific binding was estimated in the presence of 3 μM Tiotidine. Receptor proteins were filtered and washed, the filters were then counted to determine [^125I]Aminopotentidine specifically bound.

[7] = percent inhibition of specific binding, read-out: Inhibition of ligand binding, Dopamine D2L
[8] = […] [3H]Spiperone, read-out: Inhibition of ligand binding, Dopamine D2L (percent inhibition of specific binding)

C/C(=C\n1c2c(c3cc(Cl)ccc31)CN(C)CC2)c1ccc(F)c(F)c1 [Compound 98, (E)-8-chloro-5-(2-(3,4-difluorophenyl)prop-1-enyl)-2,3,4,5-tetrahydro-2-methyl-1H-pyrido[4,3-b]indole]
inhibition at 1 µM [1]: 100% | inhibition at 1 µM [2]: 95% | inhibition at 1 µM [3]: 100% | inhibition at 1 µM (histamine receptor H1): 53% | inhibition at 1 µM [4, 7]: 78% | inhibition at 1 µM [5]: 94% | inhibition at 1 µM [6]: 99%

C/C(=C\n1c2c(c3c(Cl)c(Cl)ccc31)CN(C)CC2)c1ccncc1 [Compound 245, (E)-8,9-dichloro-2-methyl-5-(2-(pyridin-4-yl)prop-1-enyl)-2,3,4,5-tetrahydro-1H-pyrido[4,3-b]indole]
inhibition at 1 µM [1]: 103% | inhibition at 1 µM [2]: 102% | inhibition at 1 µM [3]: 96% | inhibition at 1 µM (histamine receptor H1): 60% | inhibition at 1 µM [4, 7]: 92% | inhibition at 1 µM [5]: 74% | inhibition at 1 µM [6]: 71%

CN1CCc2c(c3cc(Cl)ccc3n2CC(O)c2ccncc2)C1 (stereo not shown) [Compound 183, 2-(8-chloro-2-methyl-3,4-dihydro-1H-pyrido[4,3-b]indol-5(2H)-vyl)-1-(pyridin-4-yl)ethanol]
inhibition at 1 µM [1]: 72% | inhibition at 1 µM [2]: 82% | inhibition at 1 µM [3]: 78% | inhibition at 1 µM (histamine receptor H1): 91% | inhibition at 1 µM [4, 7]: 15% | inhibition at 1 µM [5]: 74% | inhibition at 1 µM [6]: 47%

C/C(=C/n1c2c(c3cc(C)ccc31)CN(C)CC2)c1cccc(F)c1 [Compound 225, (Z)-5-(2-(3-fluorophenyl)prop-1-enyl)-2,8-dimethyl-2,3,4,5-tetrahydro-1H-pyrido[4,3-b]indole]
inhibition at 1 µM [1]: 103% | inhibition at 1 µM [2]: 99% | inhibition at 1 µM [3]: 100% | inhibition at 1 µM (histamine receptor H1): 81% | inhibition at 1 µM [4, 7]: 43% | inhibition at 1 µM [5]: 94% | inhibition at 1 µM [6]: 98%

CN1CCc2c(c3cccc(F)c3n2CC(C)(O)c2ccncc2)C1 (stereo not shown) [Compound 185, 1-(6-fluoro-2-methyl-3,4-dihydro-1H-pyrido[4,3-b]indol-5(2H)-yl)-2-(pyridin-4-yl)propan-2-ol]
inhibition at 1 µM [1]: 26% | inhibition at 1 µM [2]: 82% | inhibition at 1 µM [3]: 83% | inhibition at 1 µM (histamine receptor H1): 8% | inhibition at 1 µM [4, 7]: -1% | inhibition at 1 µM [5]: 41% | inhibition at 1 µM [6]: 29%

C=C(Cn1c2c(c3cc(C)ccc31)CN(C)CC2)c1ccc(O)cc1 [Compound No. 355, 4-(3-(2,8-dimethyl-3,4-dihydro-1H-pyrido[4,3-b]indol-5(2H)-yl)prop-1-en-2-yl)phenol]
inhibition at 1 µM [1]: 101% | inhibition at 1 µM [2]: 92% | inhibition at 1 µM [3]: 99% | inhibition at 1 µM (histamine receptor H1): 116% | inhibition at 1 µM [4, 8]: 81% | inhibition at 1 µM [5]: 92% | inhibition at 1 µM [6]: 93%

C=C(Cn1c2c(c3cccc(F)c31)CN(C)CC2)c1ccc(F)cc1 [Compound No. 353, 6-fluoro-5-(2-(4-fluorophenyl)allyl)-2-methyl-2,3,4,5-tetrahydro-1H-pyrido[4,3-b]indole]
inhibition at 1 µM [1]: 100% | inhibition at 1 µM [2]: 98% | inhibition at 1 µM [3]: 97% | inhibition at 1 µM (histamine receptor H1): 100% | inhibition at 1 µM [4, 8]: 92% | inhibition at 1 µM [5]: 87% | inhibition at 1 µM [6]: 93%

C/C(=C/n1c2c(c3cc(C)ccc31)CN(C)CC2)c1cc(F)c(F)cc1Cl [Compound 220, (Z)-5-(2-(2-chloro-4,5-difluorophenyl)prop-1-enyl)-2,8-dimethyl-2,3,4,5-tetrahydro-1H-pyrido[4,3-b]indole]
inhibition at 1 µM [1]: 99% | inhibition at 1 µM [2]: 99% | inhibition at 1 µM [3]: 98% | inhibition at 1 µM (histamine receptor H1): 91% | inhibition at 1 µM [4, 7]: 32% | inhibition at 1 µM [5]: 104% | inhibition at 1 µM [6]: 99%

CN1CCc2c(c3cc(Cl)c(Cl)cc3n2CC(C)(O)c2ccncc2)C1 (stereo not shown) [Compound 189, 1-(7,8-dichloro-2-methyl-3,4-dihydro-1H-pyrido[4,3-b]indol-5(2H)-yl)-2-(pyridin-4-yl)propan-2-ol]
inhibition at 1 µM [1]: 87% | inhibition at 1 µM [2]: 96% | inhibition at 1 µM [3]: 91% | inhibition at 1 µM (histamine receptor H1): 77% | inhibition at 1 µM [4, 7]: 2% | inhibition at 1 µM [5]: 82% | inhibition at 1 µM [6]: 85%

COc1ccc(/C(C)=C/n2c3c(c4cc(C)ccc42)CN(C)CC3)cc1F [Compound 214, (E)-5-(2-(3-fluoro-4-methoxyphenyl)prop-1-enyl)-2,8-dimethyl-2,3,4,5-tetrahydro-1H-pyrido[4,3-b]indole]
inhibition at 1 µM [1]: 94% | inhibition at 1 µM [2]: 93% | inhibition at 1 µM [3]: 95% | inhibition at 1 µM (histamine receptor H1): 23% | inhibition at 1 µM [4, 7]: 83% | inhibition at 1 µM [5]: 97% | inhibition at 1 µM [6]: 100%

C/C(=C\n1c2c(c3cc(C)ccc31)CN(C)CC2)c1ccc(F)c(F)c1 [Compound 230, (E)-5-(2-(3,4-difluorophenyl)prop-1-enyl)-2,8-dimethyl-2,3,4,5-tetrahydro-1H-pyrido[4,3-b]indole]
inhibition at 1 µM [1]: 97% | inhibition at 1 µM [2]: 98% | inhibition at 1 µM [3]: 100% | inhibition at 1 µM (histamine receptor H1): 35% | inhibition at 1 µM [4, 7]: 44% | inhibition at 1 µM [5]: 93% | inhibition at 1 µM [6]: 96%

C/C(=C/n1c2c(c3cc(Cl)c(Cl)cc31)CN(C)CC2)c1ccncc1 [Compound 244, (Z)-7,8-dichloro-2-methyl-5-(2-(pyridin-4-yl)prop-1-enyl)-2,3,4,5-tetrahydro-1H-pyrido[4,3-b]indole]
inhibition at 1 µM [1]: 106% | inhibition at 1 µM [2]: 103% | inhibition at 1 µM [3]: 99% | inhibition at 1 µM (histamine receptor H1): 87% | inhibition at 1 µM [4, 7]: 86% | inhibition at 1 µM [5]: 99% | inhibition at 1 µM [6]: 88%

C/C(=C\n1c2c(c3cc(F)ccc31)CN(C)CC2)c1ccncc1 [Compound 216, (E)-8-fluoro-2-methyl-5-(2-(pyridin-4-yl)prop-1-enyl)-2,3,4,5-tetrahydro-1H-pyrido[4,3-b]indole]
inhibition at 0.1 µM ([1]; compound at 0.1 μM): 100% | inhibition at 1 µM [1]: 104% | inhibition at 0.1 µM ([2]; read-out: Inhibition of ligand binding, Serotonin 5-HT2A (percent inhibition of specific binding), compound at 0.1 μM): 98% | inhibition at 1 µM [2]: 99% | inhibition at 0.1 µM ([3]; compound at 0.1 μM): 83% | inhibition at 1 µM [3]: 94% | Histamine Binding (1 μM) H1, percent inhibition of specific binding (histamine receptor H1; 1 μM): 49% | inhibition at 1 µM (histamine receptor H1): 47% | Inhibition of ligand binding, Dopamine D2L ([4]; percent inhibition of specific binding, 1 µM): 98% | inhibition at 1 µM [4, 7]: 97% | inhibition at 0.1 µM ([5]; compound at 0.1 μM): 66% | inhibition at 1 µM [5]: 79% | inhibition at 1 µM [6]: 61%
